What is called inhibition is the drop in the measured response relative to a control, in per cent.

In test [1] the target is T1, human Cereblon WT GST-tagged protein (Homo sapiens, UniProt Q96SW2).
T1 construct: purchased CISBIO 64BDCRBNPEH
The experiment in a line: CRBN binding, HTRF (CEREBLON BINDING kit). The settings on record: Table II-2, CRBN binding screening, HTRF; for inhibition at 0.5 µM: read-out: Inhibition rate (%) at 0.5µM; for inhibition at 2 µM: read-out: Inhibition rate (%) at 2 µM. The procedure, abridged:
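After 3 h at room temperature, emission at 665 and 620 nm was measured in a homogeneous time-resolved fluorescence format. Compounds competed with a Thalidomide-Re probe for GST-tagged wild-type human CRBN, which was labelled with a Eu anti-GST antibody.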
On the technique in general: In TR-FRET formats the signal depends on donor and acceptor labels being close together.

In the next test the target is T2, IRAK4 (Homo sapiens, UniProt Q9NWZ3).
T2 construct: evaluate the effects of the compounds of the present disclosure on the expression of target proteins in cells; endogenous in cells; host or cells: hPBMC
T2 sequence (Q9NWZ3 1-460): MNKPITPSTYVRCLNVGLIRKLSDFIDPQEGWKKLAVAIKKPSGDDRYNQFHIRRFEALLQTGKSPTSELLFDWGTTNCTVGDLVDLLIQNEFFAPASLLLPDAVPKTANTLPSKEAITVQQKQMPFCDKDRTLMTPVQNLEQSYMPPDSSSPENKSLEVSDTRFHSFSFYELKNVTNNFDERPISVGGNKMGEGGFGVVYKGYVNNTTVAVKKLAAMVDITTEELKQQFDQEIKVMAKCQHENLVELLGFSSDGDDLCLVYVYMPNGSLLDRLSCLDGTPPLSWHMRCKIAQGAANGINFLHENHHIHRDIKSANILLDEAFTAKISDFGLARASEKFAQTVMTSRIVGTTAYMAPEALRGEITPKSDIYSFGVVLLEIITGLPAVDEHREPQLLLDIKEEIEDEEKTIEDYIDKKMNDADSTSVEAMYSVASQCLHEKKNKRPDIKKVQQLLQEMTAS
The test can be described thus: Western blot degradation of IRAK4 (hPBMC). The class given is cell-based. As to conditions: Table D1. Here is the method: Conventional Western blot assay was performed to evaluate the effects of the compounds of the present disclosure on the expression of target proteins in cells.
(1) Cell Seeding and Protein Harvesting: The selected cells were processed according to the cell seeding procedure and protein harvesting procedure in Table III-2. Table III-2 Cell Seeding and Protein Harvesting Procedures
(2) To the collected supernatant, 5X SDS sample loading buffer was added, followed by denaturation at 95°C for 5 minutes. The denatured samples were then separated by SDS-PAGE electrophoresis on a polyacrylamide gel. Proteins were transferred to a nitrocellulose membrane (0.45 µm NC membrane), blocked with blocking buffer at room temperature for 1 hour, and subjected to antibody incubation and development procedures according to the antibody manufacturer's instructions (Cell Signaling Technology).
Half-Maximal Degradation Concentration value (the drug concentration required for degrading proteins by 50%, abbreviated as DC50) reads method: comparing the grayscale values of Western blot bands from drug-treated samples with those from blank DMSO-treated controls, and identifying the drug concentration range at which the grayscale value is half that of the DMSO-treated control bands.
DC50 values can be calculated using ImageJ software to measure grayscale values of Western blot bands from drug-treated samples. The concentration-response curve is fitted to estimate the drug concentration corresponding to half the grayscale value.
Target protein remaining (%) refers to the percentage of target protein remaining in hPBMC cells after treatment with protein degrader compounds.
Calculation method for target protein remaining (%): Use ImageJ software to measure grayscale values of Western blot bands from drug (protein degrader)-treated samples. The grayscale value of drug-treated bands is divided by that of internal control protein bands, and the resulting quotient is normalized to obtain the relative percentage of remaining target protein after protein degrader treatment.
Target protein degradation rate (%) = 100% - target protein remaining (%).
On the technique in general: Immunoblotting shows a protein as a band on a membrane.

Molecules are shown by their SMILES.

T1 sequence (Q96SW2 whole entry): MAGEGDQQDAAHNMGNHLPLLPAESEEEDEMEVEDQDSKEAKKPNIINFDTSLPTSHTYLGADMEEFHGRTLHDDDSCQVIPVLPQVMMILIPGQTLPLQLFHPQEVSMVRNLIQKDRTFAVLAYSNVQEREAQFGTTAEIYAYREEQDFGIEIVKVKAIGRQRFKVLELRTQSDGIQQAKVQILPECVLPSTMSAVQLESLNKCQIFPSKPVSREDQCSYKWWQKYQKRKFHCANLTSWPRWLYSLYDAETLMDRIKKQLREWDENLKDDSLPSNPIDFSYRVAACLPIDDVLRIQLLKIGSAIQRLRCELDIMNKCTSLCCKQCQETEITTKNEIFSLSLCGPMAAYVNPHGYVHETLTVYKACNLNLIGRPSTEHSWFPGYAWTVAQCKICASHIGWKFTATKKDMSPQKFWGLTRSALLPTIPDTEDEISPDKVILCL

Take `COc1cc2nn(C3CCN(Cc4ccc(C5CCC(=O)NC5=O)cn4)CC3)cc2cc1NC(=O)c1cccc(C(F)(F)F)c1` (stereo not drawn) [GT-07417, N-(2-(1-((5-(2,6-dioxopiperidin-3-yl)pyridin-2-yl)methyl)piperidin-4-yl)-6-methoxy-2H-indazol-5-yl)-3-(trifluoromethyl)benzamide]: in test [1] (at 0.5µM), the inhibition at 0.5 µM lay within 30 to 40%. Moreover, the inhibition at 2 µM in test [1] (at 2 µM) lay in the range of 60 to 80%. Further, the “Degradation of substrate protein IRAK4 (substrate protein remaining %)” value (shortened to “Degradation … (substrate protein remaining %)”) on IRAK4 is “A (A is defined as 0% ≤ substrate protein remaining % ≤ 80%)”.

For `COc1cc2nn(C3CCN(Cc4cncc(C5CCC(=O)NC5=O)c4)CC3)cc2cc1NC(=O)c1cccc(C(F)(F)F)c1` (stereo not drawn) [GT-07419, N-(2-(1-((5-(2,6-dioxopiperidin-3-yl)pyridin-3-yl)methyl)piperidin-4-yl)-6-methoxy-2H-indazol-5-yl)-3-(trifluoromethyl)benzamide], the inhibition at 0.5 µM in test [1] (at 0.5µM) lay in the range of 20 to 30%. Further, the inhibition at 2 µM in test [1] (at 2 µM) is 53 to 60%. Also, the “Degradation … (substrate protein remaining %)” value at IRAK4 is listed as “A (A is defined as 0% ≤ substrate protein remaining % ≤ 80%)”.

For `COc1cc2nn(C3CCN(Cc4cncc(N5CCC(=O)NC5=O)c4)CC3)cc2cc1NC(=O)c1cccc(C(F)(F)F)n1` [GT-07533, N-(2-(1-((5-(2,4-dioxotetrahydropyrimidin-1(2H)-yl)pyridin-3-yl)methyl)piperidin-4-yl)-6-methoxy-2H-indazol-5-yl)-6-(trifluoromethyl)picolinamide], the inhibition at 0.5 µM in test [1] (at 0.5µM) lay within 10 to 20%. The inhibition at 2 µM in test [1] (at 2 µM) was 53 to 60%. Besides, the “Degradation … (substrate protein remaining %)” value at IRAK4 is “A (A is defined as 0% ≤ substrate protein remaining % ≤ 80%)”.

In the case of `CC(C)(O)c1cc2nn(C3CCN(Cc4ccnc(C5CCC(=O)NC5=O)c4)CC3)cc2cc1NC(=O)c1cccc(C(F)(F)F)n1` (stereo not drawn) [GT-07542, N-(2-(1-((2-(2,6-dioxopiperidin-3-yl)pyridin-4-yl)methyl)piperidin-4-yl)-6-(2-hydroxypropan-2-yl)-2H-indazol-5-yl)-6-(trifluoromethyl)picolinamide], the inhibition at 0.5 µM in test [1] (at 0.5µM) was in the range of 30 to 40%. Moreover, in test [1] (at 2 µM), the inhibition at 2 µM lay in the range of 60 to 80%. Besides, the “Degradation … (substrate protein remaining %)” value at IRAK4 was “A (A is defined as 0% ≤ substrate protein remaining % ≤ 80%)”.

For the molecule `CC(C)(O)c1cc2nn(C3CCN(Cc4cncc(C5CCC(=O)NC5=O)c4)CC3)cc2cc1NC(=O)c1cccc(C(F)(F)F)n1` (stereo not drawn) [GT-07543, N-(2-(1-((5-(2,6-dioxopiperidin-3-yl)pyridin-3-yl)methyl)piperidin-4-yl)-6-(2-hydroxypropan-2-yl)-2H-indazol-5-yl)-6-(trifluoromethyl)picolinamide], the inhibition at 0.5 µM in test [1] (at 0.5µM) lay in the range of 30 to 40%. The inhibition at 2 µM in test [1] (at 2 µM) was 60 to 80%. The “Degradation … (substrate protein remaining %)” value at IRAK4 is on record as “A (A is defined as 0% ≤ substrate protein remaining % ≤ 80%)”.

Take `CC(C)Nc1cc(-n2ccc3cc(C#N)cnc32)ncc1C(=O)NC1CCN(Cc2cc(C3CCC(=O)NC3=O)cnc2F)CC1` (stereo not drawn) [GT-07544, 6-(5-cyano-1H-pyrrolo[2,3-b]pyridin-1-yl)-N-(1-((5-(2,6-dioxopiperidin-3-yl)-2-fluoropyridin-3-yl)methyl)piperidin-4-yl)-4-(isopropylamino)nicotinamide]: the inhibition at 0.5 µM in test [1] (at 0.5µM) lay within 53 to 60%. The inhibition at 2 µM in test [1] (at 2 µM) is 80 to 100%. Also, the “Degradation … (substrate protein remaining %)” value at IRAK4 was “A (A is defined as 0% ≤ substrate protein remaining % ≤ 80%)”.

Regarding `COc1cc2nn(C3CCN(Cc4cc(C5CCC(=O)NC5=O)cnc4F)CC3)cc2cc1NC(=O)c1cccc(C(F)(F)F)n1` (stereo not drawn) [GT-07549, N-(2-(1-((5-(2,6-dioxopiperidin-3-yl)-2-fluoropyridin-3-yl)methyl)piperidin-4-yl)-6-methoxy-2H-indazol-5-yl)-6-(trifluoromethyl)picolinamide], the inhibition at 0.5 µM in test [1] (at 0.5µM) fell in the range of 40 to 53%. Besides, in test [1] (at 2 µM), the inhibition at 2 µM fell in the range of 80 to 100%. For the same molecule, the “Degradation … (substrate protein remaining %)” value at IRAK4 was “A (A is defined as 0% ≤ substrate protein remaining % ≤ 80%)”.

With `COc1cc2nn(C3CCN(Cc4cccnc4C4CCC(=O)NC4=O)CC3)cc2cc1NC(=O)c1cccc(C(F)(F)F)n1` (stereo not drawn) [GT-07550, N-(2-(1-((2-(2,6-dioxopiperidin-3-yl)pyridin-3-yl)methyl)piperidin-4-yl)-6-methoxy-2H-indazol-5-yl)-6-(trifluoromethyl)picolinamide], the “Degradation … (substrate protein remaining %)” value on IRAK4 is given as “A (A is defined as 0% ≤ substrate protein remaining % ≤ 80%)”.

Consider `CC(C)(O)c1cc2nc(C3CCN(Cc4ccnc(N5CCC(=O)NC5=O)c4)CC3)sc2cc1NC(=O)c1cccc(C(F)(F)F)n1` [GT-07619, N-(2-(1-((2-(2,4-dioxotetrahydropyrimidin-1(2H)-yl)pyridin-4-yl)methyl)piperidin-4-yl)-5-(2-hydroxypropan-2-yl)benzo[d]thiazol-6-yl)-6-(trifluoromethyl)picolinamide], for which, at IRAK4, the “Degradation … (substrate protein remaining %)” value is “A (A is defined as 0% ≤ substrate protein remaining % ≤ 80%)”.

Regarding `CC(C)(O)c1cc2nc(C3CCN(Cc4ccnc(C5CCC(=O)NC5=O)c4)CC3)sc2cc1NC(=O)c1cccc(C(F)(F)F)n1` (stereo not drawn) [GT-07622, N-(2-(1-((2-(2,6-dioxopiperidin-3-yl)pyridin-4-yl)methyl)piperidin-4-yl)-5-(2-hydroxypropan-2-yl)benzo[d]thiazol-6-yl)-6-(trifluoromethyl)picolinamide], the “Degradation … (substrate protein remaining %)” value on IRAK4 is on record as “A (A is defined as 0% ≤ substrate protein remaining % ≤ 80%)”.

With `CC(C)(O)c1cc2nc(C3CCN(Cc4ccc(C5CCC(=O)NC5=O)cn4)CC3)sc2cc1NC(=O)c1cccc(C(F)(F)F)n1` (stereo not drawn) [GT-07623, N-(2-(1-((5-(2,6-dioxopiperidin-3-yl)pyridin-2-yl)methyl)piperidin-4-yl)-5-(2-hydroxypropan-2-yl)benzo[d]thiazol-6-yl)-6-(trifluoromethyl)picolinamide], the “Inhibition rate (%) at 0.5µM” value in test [1] (at 0.5µM) is reported as “a2 (20% < a2 ≤ 30%)”. The “Inhibition rate (%) at 2 µM” value in test [1] (at 2 µM) is on record as “a6 (60% < a6 ≤ 80%)”. Further, the “Degradation … (substrate protein remaining %)” value at IRAK4 was “A (A is defined as 0% ≤ substrate protein remaining % ≤ 80%)”.

`CC(C)(O)c1cc2nc(C3CCN(Cc4cccnc4C4CCC(=O)NC4=O)CC3)sc2cc1NC(=O)c1cccc(C(F)(F)F)n1` (stereo not drawn) [GT-07625, N-(2-(1-((2-(2,6-dioxopiperidin-3-yl)pyridin-3-yl)methyl)piperidin-4-yl)-5-(2-hydroxypropan-2-yl)benzo[d]thiazol-6-yl)-6-(trifluoromethyl)picolinamide]: the “Degradation … (substrate protein remaining %)” value on IRAK4 is recorded as “A (A is defined as 0% ≤ substrate protein remaining % ≤ 80%)”.

Turning to `CC(C)(O)c1cc2nc(C3CCN(Cc4ccnc(N5CCC(=O)NC5=O)c4)CC3)oc2cc1NC(=O)c1cccc(C(F)(F)F)n1` [GT-07627, N-(2-(1-((2-(2,4-dioxotetrahydropyrimidin-1(2H)-yl)pyridin-4-yl)methyl)piperidin-4-yl)-5-(2-hydroxypropan-2-yl)benzo[d]oxazol-6-yl)-6-(trifluoromethyl)picolinamide], the “Degradation … (substrate protein remaining %)” value at IRAK4 is given as “A (A is defined as 0% ≤ substrate protein remaining % ≤ 80%)”.

Regarding `CC(C)(O)c1cc2nc(C3CCN(Cc4cccnc4C4CCC(=O)NC4=O)CC3)oc2cc1NC(=O)c1cccc(C(F)(F)F)n1` (stereo not drawn) [GT-07631, N-(2-(1-((2-(2,6-dioxopiperidin-3-yl)pyridin-3-yl)methyl)piperidin-4-yl)-5-(2-hydroxypropan-2-yl)benzo[d]oxazol-6-yl)-6-(trifluoromethyl)picolinamide], at IRAK4, the “Degradation … (substrate protein remaining %)” value is reported as “A (A is defined as 0% ≤ substrate protein remaining % ≤ 80%)”.

Values taken from patent EP4678638A1, “NEW E3 UBIQUITIN LIGASE LIGAND, PROTEIN DEGRADATION AGENT AND USE THEREOF” (priority 2023, dated 2024).
